Assay type in all cases: cell-based
One assay has as its system P. aeruginosa CCUG 59347. Here is the method:
(§1) The inoculum was prepared by making a direct suspension of isolated colonies (selected from an 18-24 hour Mueller-Hinton agar plate) adjusted to the 0.5 McFarland standard. […] The assays were performed in duplicate. […] Several of the compounds were subjected to multiple tests, and where this is the case, the MIC presented is the median value obtained. The MIC values are quoted in μg/mL.

A further assay concerns K. pneumoniae CA64. The procedure:
as §1

Another assay relates to E. coli CA58. Here is the method:
as §1

For another assay, the system named is P. aeruginosa ATCC 27853. As to conditions: cation-adjusted Mueller-Hinton Broth, 18-20 h, 35° C. The procedure:
(§2) The inoculum was prepared by making a direct suspension of isolated colonies (selected from an 18-24 hour Mueller-Hinton agar plate) adjusted to the 0.5 McFarland standard. […] The assays were performed in duplicate. […] The MIC values are quoted in μg/mL.

In assay [1] the test system is A. baumannii ATCC BAA-747. Here is the method: as §2
The next assay relates to K. pneumoniae ATCC 13822. The procedure:
as §2

Another assay has as its system E. coli ATCC 25922. The procedure: as §2
In another assay the test system is A. baumannii NCTC 13424. The procedure: as §2
The mark [2] stands for this setting: cation-adjusted Mueller-Hinton Broth, 18-20 h, 35° C.

Converted amounts (≈) assume the structure as drawn. Read-outs that look alike come from different tables or passages of the source. Where a SMILES comes first, the peptide text is derived from it. Bridges are numbered along the chain shown (N, C = ends). [ ]: non-standard residue; d: D form. The star is where a group is joined. X9 = CC(C)c1cccc([C@H](CN)CC(=O)*)c1; X16 = NC[C@H](CC(=O)*)Cc1cccc(Cl)c1; X11 = NC[C@H](CC(=O)*)c1ccccc1Cl; Dab = NCC[C@H](N)C(=O)O; Dap = NC[C@H](N)C(=O)O

For the compound `CC(C)C[C@H]1NC(=O)[C@H](CCN)NC(=O)[C@@H](NC(=O)[C@H](CN)NC(=O)[C@@H](NC(=O)C[C@@H](CN)c2cccc(C(C)C)c2)[C@@H](C)O)CCNC(=O)[C@H]([C@@H](C)O)NC(=O)[C@H](CCN)NC(=O)[C@H](CCN)NC(=O)[C@H]([C@@H](C)O)NC1=O` [Example 20, (R)-4-amino-3-(3- isopropylphenyl) butanoyl-Thr-Dap- Cyclo[Dab-Dab-DLeu- Thr-Dab-Dab-Thr]] (X9-T[Dap][Dab][Dab][dL]T[Dab][Dab]T; lactam 3-C), the “MIC P. aeruginosa CCUG 59347” value in the assay on P. aeruginosa CCUG 59347 (setting [2]) is 2 µg/mL (≈ 1.81 µM). In the assay on K. pneumoniae CA64 (setting [2]), the “MIC K. pneumoniae CA64” value is 64 µg/mL (≈ 57.8 µM). The “MIC E. coli CA58” value against E. coli CA58 (setting [2]) was determined as 64 µg/mL (≈ 57.8 µM). For the same compound, the “MIC P. aeruginosa ATCC 27853” value with P. aeruginosa ATCC 27853 came to 0.5 µg/mL (≈ 0.452 µM). In addition, in assay [1] (setting [2]), the “MIC A. baumannii ATCC BAA-747” value amounted to 2 µg/mL (≈ 1.81 µM). Moreover, in the assay with K. pneumoniae ATCC 13822 (setting [2]), the “MIC K. pneumoniae ATCC 13822” value was determined as 2 µg/mL (≈ 1.81 µM). Moreover, the “MIC E. coli ATCC 25922” value against E. coli ATCC 25922 (setting [2]) stood at 1 µg/mL (≈ 0.904 µM). For the same compound, the “MIC A. baumannii NCTC 13424” value in the assay on A. baumannii NCTC 13424 (setting [2]) worked out at 1 µg/mL (≈ 0.904 µM).

On to `CC(C)C[C@@H]1NC(=O)[C@@H](Cc2ccccc2)NC(=O)[C@H](CCN)NC(=O)[C@@H](NC(=O)[C@H](CN)NC(=O)[C@@H](NC(=O)C[C@@H](CN)c2ccccc2Cl)[C@@H](C)O)CCNC(=O)[C@H]([C@@H](C)O)NC(=O)[C@H](CCN)NC(=O)[C@H](CCN)NC1=O` [Example 4, (R)-4-amino-3-(2- chlorophenyl)butanoyl- Thr-Dap-Cyclo[Dab- Dab-DPhe-Leu-Dab- Dab-Thr]] (X11-T[Dap][Dab][Dab][dF]L[Dab][Dab]T; lactam 3-C), for which the “MIC P. aeruginosa CCUG 59347” value with P. aeruginosa CCUG 59347 (setting [2]) was 0.5 µg/mL (≈ 0.437 µM). For the same compound, in the assay on K. pneumoniae CA64 (setting [2]), the “MIC K. pneumoniae CA64” value was 16 µg/mL (≈ 14 µM). Further, the “MIC E. coli CA58” value in the assay with E. coli CA58 (setting [2]) is 16 µg/mL (≈ 14 µM). The “MIC P. aeruginosa ATCC 27853” value against P. aeruginosa ATCC 27853 was determined as 0.25 µg/mL (≈ 0.218 µM). For the same compound, the “MIC A. baumannii ATCC BAA-747” value in assay [1] (setting [2]) amounted to 1 µg/mL (≈ 0.874 µM). For the same compound, the “MIC K. pneumoniae ATCC 13822” value with K. pneumoniae ATCC 13822 (setting [2]) stood at 0.25 µg/mL (≈ 0.218 µM). Moreover, the “MIC E. coli ATCC 25922” value in the assay on E. coli ATCC 25922 (setting [2]) was found to be 0.5 µg/mL (≈ 0.437 µM). Further, the “MIC A. baumannii NCTC 13424” value in the assay on A. baumannii NCTC 13424 (setting [2]) is 1 µg/mL (≈ 0.874 µM).

For the compound `CC(C)C[C@@H]1NC(=O)[C@@H](Cc2ccccc2)NC(=O)[C@H](CCN)NC(=O)[C@@H](NC(=O)[C@H](CN)NC(=O)[C@@H](NC(=O)C[C@@H](CN)Cc2cccc(Cl)c2)[C@@H](C)O)CCNC(=O)[C@H]([C@@H](C)O)NC(=O)[C@H](CCN)NC(=O)[C@H](CCN)NC1=O` [Example 12, (S)-4-amino-3-(3- chlorobenzyl)butanoyl- Thr-Dap-Cyclo[Dab- Dab-DPhe-Leu-Dab- Dab-Thr]. Isomer 2] (X16-T[Dap][Dab][Dab][dF]L[Dab][Dab]T; lactam 3-C), in the assay on P. aeruginosa CCUG 59347 (CCUG 59347), the “MIC P. aeruginosa CCUG 59347” value was determined as 0.5 µg/mL (≈ 0.431 µM). Moreover, the “MIC K. pneumoniae CA64” value in the assay on K. pneumoniae CA64 (CA64) was found to be 8 µg/mL (≈ 6.9 µM). In addition, in the assay with E. coli CA58 (CA58), the “MIC E. coli CA58” value turned out to be 4 µg/mL (≈ 3.45 µM). Moreover, in assay [1] (ATCC BAA-747), the “MIC A. baumannii ATCC BAA-747” value is 0.25 µg/mL (≈ 0.216 µM). The “MIC K. pneumoniae ATCC 13822” value in the assay with K. pneumoniae ATCC 13822 (ATCC 13822) is 0.5 µg/mL (≈ 0.431 µM). For the same compound, the “MIC E. coli ATCC 25922” value against E. coli ATCC 25922 (ATCC 25922) worked out at 0.5 µg/mL (≈ 0.431 µM). Moreover, the “MIC A. baumannii NCTC 13424” value in the assay on A. baumannii NCTC 13424 (NCTC 13424) amounted to 0.25 µg/mL (≈ 0.216 µM).

The values are drawn from patent publication US12528837B2, “Aryl substituted polymyxin derivatives” (priority 2018, dated 2026).
